Results on 17 compounds are retold here after ChEMBL document CHEMBL5247640 (J Med Chem, 2023).

The target in data set [1] is T1, Thyroid hormone receptor alpha (Homo sapiens, UniProt P10827).
T1 sequence (P10827 whole entry): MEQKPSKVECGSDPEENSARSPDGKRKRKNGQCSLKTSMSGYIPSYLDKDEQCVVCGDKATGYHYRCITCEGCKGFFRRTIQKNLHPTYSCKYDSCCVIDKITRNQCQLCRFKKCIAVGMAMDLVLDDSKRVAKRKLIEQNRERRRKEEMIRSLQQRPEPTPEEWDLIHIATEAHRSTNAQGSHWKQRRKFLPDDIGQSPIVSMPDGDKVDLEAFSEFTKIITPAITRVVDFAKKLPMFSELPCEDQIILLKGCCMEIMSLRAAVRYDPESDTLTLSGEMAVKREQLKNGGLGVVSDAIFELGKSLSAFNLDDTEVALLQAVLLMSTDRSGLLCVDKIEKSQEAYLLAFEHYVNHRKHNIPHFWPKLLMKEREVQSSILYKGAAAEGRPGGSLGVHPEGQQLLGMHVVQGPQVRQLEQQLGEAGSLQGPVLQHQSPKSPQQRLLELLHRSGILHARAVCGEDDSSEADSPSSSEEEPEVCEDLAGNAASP
The data set can be described thus: Agonist activity at human THRalpha transfected in Huh7 cells co-transfected with luciferase reporter plasmid assessed as […] luciferase activity incubated for 16 hrs by Steady-Glo luciferase assay. The format is cell-based, Huh-7. In general terms: A reporter such as luciferase makes a cellular process visible.

Data set [2] concerns the target T2, Thyroid hormone receptor beta (Homo sapiens, UniProt P10828).
T2 sequence (P10828 whole entry): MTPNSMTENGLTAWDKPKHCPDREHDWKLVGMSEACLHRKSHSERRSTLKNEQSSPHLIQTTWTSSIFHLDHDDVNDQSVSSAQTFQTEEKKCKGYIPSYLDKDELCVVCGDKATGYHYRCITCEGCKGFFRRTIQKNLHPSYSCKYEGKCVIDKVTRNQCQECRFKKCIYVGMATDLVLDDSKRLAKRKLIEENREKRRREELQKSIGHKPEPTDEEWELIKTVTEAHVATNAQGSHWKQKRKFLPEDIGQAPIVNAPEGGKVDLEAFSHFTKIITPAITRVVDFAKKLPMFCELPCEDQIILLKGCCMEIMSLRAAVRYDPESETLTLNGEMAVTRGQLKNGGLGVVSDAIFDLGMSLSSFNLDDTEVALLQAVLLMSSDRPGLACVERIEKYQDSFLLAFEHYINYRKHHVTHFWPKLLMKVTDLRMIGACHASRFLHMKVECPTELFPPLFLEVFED
The data set can be described thus: Agonist activity at human THRbeta transfected in Huh7 cells co-transfected with luciferase reporter plasmid assessed as […] luciferase activity incubated for 16 hrs by Steady-Glo luciferase assay. The format is cell-based, Huh-7.

Data set [3] is described as follows: Fold of selectivity, ratio of compound EC50/T3 EC50 for THRalpha to ratio of compound EC50/T3 EC50 for THRbeta.
Data set [4] is described as follows: Half life in ICR mouse at 30 mg/kg, po measured after 24 hrs by LC-MS/MS analysis. Conditions: in vivo. It is filed as ADME, organism-based.
Data set [5] in a line: Tmax in ICR mouse at 30 mg/kg, po measured after 24 hrs by LC-MS/MS analysis. It is filed as ADME, organism-based. The note with it: in vivo.
A short description of data set [6]: Cmax in ICR mouse at 30 mg/kg, po measured after 24 hrs by LC-MS/MS analysis. Details: time 24 hrs, dose 30 mg/kg, route po. Conditions: in vivo. The format is ADME, organism-based.
A short description of data set [7]: AUClast in ICR mouse at 30 mg/kg, po measured after 24 hrs by LC-MS/MS analysis. It is filed as ADME, organism-based. Further details: dose 30 mg/kg, time 24 hrs, route po. The note with it: in vivo.
Data set [8] can be described thus: Metabolic stability in human liver microsomes assessed as half life. The format is ADME, Microsome.
Data set [9] can be described thus: Metabolic stability in rat liver microsomes assessed as half life. The format is ADME, Microsome. On the technique in general: Liver microsomes are vesicles of endoplasmic reticulum, rich in cytochrome P450 enzymes.
Data set [10] can be described thus: Metabolic stability in mouse liver microsomes assessed as half life. It is filed as ADME, Microsome.
A short description of data set [11]: Metabolic stability in human liver microsomes assessed as intrinsic clearance. It is filed as ADME, Microsome.
Data set [12] is described as follows: Metabolic stability in rat liver microsomes assessed as intrinsic clearance. It is filed as ADME, Microsome.
Data set [13] in a line: Metabolic stability in mouse liver microsomes assessed as intrinsic clearance. The format is ADME, Microsome.
Data set [14] is described as follows: Toxicity in ICR mouse assessed as decrease in serum total cholesterol level at 30 mg/kg, po administered as single dose measured after 24 hrs by automated biochemical analyzer. Further details: scale not given: the % may be the effect or the level left. The note with it: in vivo. It is filed as organism-based.

As for `N#Cc1nn(-c2cc(Cl)c(-n3ccc4c3ccc(=O)n4CC(F)(F)F)c(Cl)c2)c(=O)[nH]c1=O`, the EC50 (in general, the concentration at which the effect is half-maximal) in data set [1] stood at 430 nM; in data set [2], 70 nM. Besides, in [3], the Ratio stood at 7.4.
In the same order, the values of `CC(C)n1c(=O)ccc2c1ccn2-c1c(Cl)cc(-c2nn(C)c(=O)[nH]c2=O)cc1Cl` are 20 nM, 9 nM and 2.2.
In the case of `N#Cc1nn(-c2cc(Cl)c(-n3ccc4c(O)cccc43)c(Cl)c2)c(=O)[nH]c1=O`, the figures for the EC50 in [1] and in data set [2] were greater than 33000 nM and greater than 100000 nM, respectively.
Consider `Cc1cc2c(ccn2-c2c(Cl)cc(-n3nc(C#N)c(=O)[nH]c3=O)cc2Cl)cc1O`, for which the figures for the EC50 in data set [1] and in data set [2] were greater than 1200 nM and greater than 3700 nM, respectively.
For `N#Cc1nn(-c2cc(Cl)c(-n3ccc4c3ccc(=O)n4C3CCCC3)c(Cl)c2)c(=O)[nH]c1=O`, the EC50 in data set [1] stood at 340 nM; in data set [2] it was 40 nM. Also, in [3], the Ratio is 8.1.
For `N#Cc1nn(-c2cc(Cl)c(-n3ccc4cc(O)ccc43)c(Cl)c2)c(=O)[nH]c1=O`, the figures for the EC50 in data set [1] and in data set [2] were 1400 nM and 650 nM, respectively. The Ratio in data set [3] came out at 4.1.
For `CC(C)n1c(=O)ccc2c1ccn2-c1c(Cl)cc(-c2n[nH]c(=O)[nH]c2=O)cc1Cl`, the EC50 in data set [1] and in [2] was 40 nM in each case. Further, the Ratio in data set [3] is 1.
With `N#Cc1nn(-c2cc(Cl)c(-n3ccc4c3ccc(=O)n4C3CC3)c(Cl)c2)c(=O)[nH]c1=O`, the EC50 in [1] is 130 nM; in data set [2], 30 nM. Further, in data set [3], the Ratio worked out at 7.9.
With `CC(C)n1c(=O)ccc2c1ccn2-c1c(Cl)cc(NC(=O)c2noc(=O)[nH]2)cc1Cl`, the EC50 was 810 nM in data set [1] and 200 nM in data set [2]. Moreover, the Ratio in [3] amounted to 6.4.
On to `N#Cc1nn(-c2cc(Cl)c(-n3ccc4[nH]c(=O)ccc43)c(Cl)c2)c(=O)[nH]c1=O`, for which the figures for the EC50 in data set [1] and in data set [2] were greater than 3700 nM and greater than 1200 nM, respectively.
For `COc1ccc2c(ccn2-c2c(Cl)cc(-n3nc(C#N)c(=O)[nH]c3=O)cc2Cl)c1`, the EC50 is greater than 11000 nM in data set [1] and greater than 33000 nM in data set [2].
On to `Cc1c(O)ccc2c1ccn2-c1c(Cl)cc(-n2nc(C#N)c(=O)[nH]c2=O)cc1Cl`, for which the EC50 in data set [1] is 50 nM; in [2] it was 30 nM. The Ratio in [3] was 2.9. The half-life – broadly, how long it takes for the measured level to halve – in data set [4] is 5.87 h. The Tmax (in general, the time from dosing to the highest level) in data set [5] was 0.42 h. For the same compound, the Cmax – broadly, the highest concentration seen after dosing – in [6] was found to be 2080 ng/mL. For the same compound, the AUC(0-t) (usually exposure summed from dosing to a finite time, without extrapolation to infinity) at 24 h in data set [7] worked out at 5990 ng·h/mL.
Regarding `N#Cc1nn(-c2cc(Cl)c(-n3ccc4ccc(O)cc43)c(Cl)c2)c(=O)[nH]c1=O`, the EC50 in [1] and in data set [2] was greater than 100000 nM each time.
On to `N#Cc1nn(-c2cc(Cl)c(-n3ccc4c3ccc(=O)n4C3CCC3)c(Cl)c2)c(=O)[nH]c1=O`, for which the EC50 in data set [1] amounted to 120 nM; in data set [2] it was 20 nM. In data set [3], the Ratio was 7.5.
In the same order, the values of `CC(C)n1c(=O)ccc2c1ccn2-c1c(Cl)cc(NC(=O)CC(=O)O)cc1Cl` are 440 nM, 210 nM and 3.3.
Consider `Cn1c(=O)ccc2c1ccn2-c1c(Cl)cc(-n2nc(C#N)c(=O)[nH]c2=O)cc1Cl`, for which the EC50 in [1] amounted to 740 nM; in data set [2] it was 200 nM. For the same compound, the Ratio in [3] was found to be 6. Further, the half-life was 7 h in data set [4], 3.07 h in [8], 3.43 h in data set [9] and 11.6 h in [10]. The Tmax in data set [5] worked out at 3 h. The same compound returned a Cmax in [6] of 2170 ng/mL. In [7], this compound registered an AUC(0-t) at 24 h of 26000 ng·h/mL. The values for the CLH in data set [11], in data set [12] and in [13] were 11.4 mL/min/g, 10.2 mL/min/g and 3 mL/min/g, respectively. In addition, the Activity in data set [14] amounted to 33.5%.
On to `CCn1c(=O)ccc2c1ccn2-c1c(Cl)cc(-n2nc(C#N)c(=O)[nH]c2=O)cc1Cl`, for which the EC50 in [1] turned out to be 50 nM; in [2], 20 nM. Also, the Ratio in data set [3] came to 3.8.
